This assay addresses T1, M^pro expressed from mCherry-repM^pro-eGFP (total protease, all forms) (Severe acute respiratory syndrome coronavirus 2, UniProt P0DTD1).
T1 construct: gene rep
The assay can be described thus: cell-based. The note with it: read-out: HEK293T cells, reporter mCherry-repM^pro-eGFP / Total inhibition EC50.

This passage reports EC50 results from article PMC11773056, “The zymogenic form of SARS-CoV-2 main protease: A discrete target for drug discovery” (The Journal of Biological Chemistry, 2024).

As to `O=C(Oc1cncc(C(F)(F)F)c1)c1cccc2[nH]ccc12` [compound 1, Compound 1], the EC50 was determined as 12.1 ± 2.8 µM.
